One block for each compound: values may come before it. Calls of active or inactive are those of the source. The calls are words filed in the database; no cut-off is given here.
Key:
[1] = target: T1, Bromodomain-containing protein 2 (Homo sapiens, UniProt P25440); test: Binding affinity to human BRD2 domain 2 assessed as dissociation constant by isothermal titration calorimetry assay
[2] = target: T1, Bromodomain-containing protein 2; test: Binding affinity to human BRD2 domain 1 assessed as dissociation constant by isothermal titration calorimetry assay
[3] = test system: MOLT-4; test: Cytotoxicity against human MOLT-4 cells assessed as cell viability at 5 uM by CellTiter-Glo luminescent assay; type: functional; conditions: read-out: Activity
[4] = target: Histone deacetylase 1 (Homo sapiens, UniProt Q13547); test: Inhibition of human recombinant HDAC1 assessed as fluorescence using fluorogenic substrate ZMAL incubated for 90 min by microplate reader
[5] = target: T2, Histone deacetylase (Homo sapiens) (UniProt Q13547+O15379+Q9UBN7+Q92769+Q9UQL6+Q8WUI4+Q9BY41+Q96DB2+P56524+Q9UKV0+Q969S8); test: Inhibition of HDAC in human K562 cells assessed as decrease in MYC expression measured after 24 to 72 hrs by Western blot analysis; type: cell-based; conditions: time 24-72 hrs
[6] = test system: HPBALL; test: Induction of apoptosis in human HPBALL cells assessed as increase in apoptotic cells at 5 uM after 24 hrs using annexin V/PI followed by flow cytometry; type: functional, cell-based
[7] = test system: HPBALL; test: Induction of apoptosis in human HPBALL cells assessed as increase in apoptotic cells at 5 uM after 48 hrs by using annexin V/PI followed by flow cytometry; type: functional, cell-based
[8] = test system: HPBALL; test: Induction of apoptosis in human HPBALL cells assessed as increase in apoptotic cells at 5 uM after 72 hrs using annexin V/PI followed by flow cytometry; type: functional, cell-based
[9] = test system: HPBALL; test: Induction of apoptosis in human HPBALL cells assessed as accumulation at sub-G1 phase at 5 uM after 72 hrs by flow cytometry; type: functional, cell-based
[10] = target: T2, Histone deacetylase (Homo sapiens); test: Inhibition of HDAC in human K562 cells assessed as increase in acetylated alpha-tubulin measured after 48 hrs by Western blot analysis; type: cell-based
[11] = test system: K562; test: Induction of apoptosis in human K562 cells assessed as apoptosis at 3.4 uM after 24 to 72 hrs using annexin V/PI followed by flow cytometry; type: functional, cell-based; conditions: time 24-72 hrs
[12] = Nonlethal toxicity in zebrafish embryos assessed as embryo survival at 0.005 uM after 72 hrs by visual analysis (reference value: 100%); type: organism-based, Danio rerio; conditions: in vivo
[13] = Nonlethal toxicity in zebrafish embryos assessed as embryo survival at 0.05 uM after 72 hrs by visual analysis (reference value: 100%); type: organism-based, Danio rerio; conditions: in vivo
[14] = Nonlethal toxicity in zebrafish embryos assessed as embryo survival at 0.5 uM after 72 hrs by visual analysis (reference value: 100%); type: organism-based, Danio rerio; conditions: in vivo
[15] = test system: HPBALL; test: Anticancer activity against human HPBALL cells assessed as reduction in size of colony at 5 uM measured after 24 hrs by colony formation assay; type: functional, cell-based
[16] = test system: HPBALL; test: Induction of apoptosis in human HPBALL cells assessed as annexin V positive cells at 5 uM after 48 hrs by annexin V/PI staining measured by flow cytometry; type: functional, cell-based
[17] = test system: Danio rerio; test: Toxicity in zebrafish embryos assessed as pericardial edema at 0.005 uM after 72 hrs by visual analysis (reference value: 10%); type: organism-based, Embryo; conditions: in vivo
[18] = organism: Danio rerio; test: Toxicity in zebrafish embryos assessed as head necrosis at 0.5 uM after 72 hrs by visual analysis (reference value: 0%); type: organism-based; conditions: in vivo
[19] = organism: Danio rerio; test: Toxicity in zebrafish embryos assessed as head necrosis at 50 uM after 72 hrs by visual analysis (reference value: 0%); type: organism-based; conditions: in vivo
[20] = organism: Danio rerio; test: Toxicity in zebrafish embryos assessed as tail necrosis at 0.5 uM after 72 hrs by visual analysis (reference value: 0%); type: organism-based; conditions: in vivo
[21] = organism: Danio rerio; test: Toxicity in zebrafish embryos assessed as tail necrosis at 5 uM after 72 hrs by visual analysis (reference value: 0%); type: organism-based; conditions: in vivo
[22] = organism: Danio rerio; test: Toxicity in zebrafish embryos assessed as malformation of head at 0.5 uM after 72 hrs by visual analysis (reference value: 0%); type: organism-based; conditions: in vivo
[23] = organism: Danio rerio; test: Toxicity in zebrafish embryos assessed as malformation of head at 50 uM after 72 hrs by visual analysis (reference value: 0%); type: organism-based; conditions: in vivo
[24] = organism: Danio rerio; test: Toxicity in zebrafish embryos assessed as malformation of tail at 0.05 uM after 72 hrs by visual analysis (reference value: 5%); type: organism-based; conditions: in vivo
[25] = organism: Danio rerio; test: Toxicity in zebrafish embryos assessed as malformation of tail at 0.5 uM after 72 hrs by visual analysis (reference value: 5%); type: organism-based; conditions: in vivo
[26] = organism: Danio rerio; test: Toxicity in zebrafish embryos assessed as malformation of tail at 50 uM after 72 hrs by visual analysis (reference value: 5%); type: organism-based; conditions: in vivo
[27] = organism: Danio rerio; test: Toxicity in zebrafish embryos assessed as teratogenesis at 0.005 uM after 72 hrs by visual analysis (reference value: 0%); type: organism-based, Embryo; conditions: in vivo
[28] = organism: Danio rerio; test: Toxicity in zebrafish embryos assessed as teratogenesis at 0.05 uM after 72 hrs by visual analysis (reference value: 0%); type: organism-based, Embryo; conditions: in vivo
[29] = organism: Danio rerio; test: Toxicity in zebrafish embryos assessed as teratogenesis at 0.5 uM after 72 hrs by visual analysis (reference value: 0%); type: organism-based, Embryo; conditions: in vivo
[30] = organism: Danio rerio; test: Toxicity in zebrafish embryos assessed as cardiac teratogenesis/necrosis at 0.005 uM after 72 hrs by visual analysis (reference value: 0%); type: organism-based, Embryo; conditions: in vivo
[31] = organism: Danio rerio; test: Toxicity in zebrafish embryos assessed as cardiac teratogenesis/necrosis at 5 uM after 72 hrs by visual analysis (reference value: 0%); type: organism-based, Embryo; conditions: in vivo
[32] = organism: Danio rerio; test: Toxicity in zebrafish embryos assessed as cardiac teratogenesis/necrosis at 50 uM after 72 hrs by visual analysis (reference value: 0%); type: organism-based, Embryo; conditions: in vivo
[33] = organism: Danio rerio; test: Toxicity in zebrafish embryos assessed as brain hemorrhage at 0.05 uM after 72 hrs by visual analysis (reference value: 0%); type: organism-based; conditions: in vivo
[34] = organism: Danio rerio; test: Toxicity in zebrafish embryos assessed as brain hemorrhage at 0.5 uM after 72 hrs by visual analysis (reference value: 0%); type: organism-based; conditions: in vivo
[35] = organism: Danio rerio; test: Toxicity in zebrafish embryos assessed as brain hemorrhage at 5 uM after 72 hrs by visual analysis (reference value: 0%); type: organism-based; conditions: in vivo
[36] = organism: Danio rerio; test: Toxicity in zebrafish embryos assessed as brain hemorrhage at 50 uM after 72 hrs by visual analysis (reference value: 0%); type: organism-based; conditions: in vivo
[37] = test system: Danio rerio; test: Toxicity in zebrafish embryos assessed as yolk sac edema at 0.005 uM after 72 hrs by visual analysis (reference value: 0%); type: organism-based, Embryo; conditions: in vivo
[38] = test system: Danio rerio; test: Toxicity in zebrafish embryos assessed as yolk sac edema at 0.05 uM after 72 hrs by visual analysis (reference value: 0%); type: organism-based, Embryo; conditions: in vivo
[39] = test system: Danio rerio; test: Toxicity in zebrafish embryos assessed as yolk sac edema at 0.5 uM after 72 hrs by visual analysis (reference value: 0%); type: organism-based, Embryo; conditions: in vivo
[40] = test system: Danio rerio; test: Toxicity in zebrafish embryos assessed as yolk sac edema at 5 uM after 72 hrs by visual analysis (reference value: 0%); type: organism-based, Embryo; conditions: in vivo
[41] = organism: Danio rerio; test: Toxicity in zebrafish embryos assessed as small eyes at 0.005 uM after 72 hrs by visual analysis (reference value: 10%); type: organism-based, Embryo; conditions: in vivo
[42] = organism: Danio rerio; test: Toxicity in zebrafish embryos assessed as small eyes at 0.5 uM after 72 hrs by visual analysis (reference value: 10%); type: organism-based, Embryo; conditions: in vivo
[43] = organism: Danio rerio; test: Toxicity in zebrafish embryos assessed as small eyes at 5 uM after 72 hrs by visual analysis (reference value: 10%); type: organism-based, Embryo; conditions: in vivo
[44] = organism: Danio rerio; test: Toxicity in zebrafish embryos assessed as small eyes at 50 uM after 72 hrs by visual analysis (reference value: 10%); type: organism-based, Embryo; conditions: in vivo

Sequence of Histone deacetylase 1 (Q13547 whole entry): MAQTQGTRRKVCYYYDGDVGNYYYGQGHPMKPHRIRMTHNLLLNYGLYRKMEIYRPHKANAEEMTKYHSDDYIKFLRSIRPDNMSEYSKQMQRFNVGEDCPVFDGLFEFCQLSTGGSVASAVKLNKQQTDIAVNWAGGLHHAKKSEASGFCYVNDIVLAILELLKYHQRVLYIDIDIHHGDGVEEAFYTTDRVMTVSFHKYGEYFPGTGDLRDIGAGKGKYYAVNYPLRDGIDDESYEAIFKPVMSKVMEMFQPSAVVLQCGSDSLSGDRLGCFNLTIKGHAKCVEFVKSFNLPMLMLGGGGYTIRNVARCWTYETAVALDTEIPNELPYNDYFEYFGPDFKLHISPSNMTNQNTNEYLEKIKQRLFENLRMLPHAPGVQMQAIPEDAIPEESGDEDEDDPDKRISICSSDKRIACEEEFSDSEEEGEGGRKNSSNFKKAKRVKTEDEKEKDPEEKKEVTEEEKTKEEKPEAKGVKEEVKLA
T1 sequence (P25440 whole entry, the tested form may be a part): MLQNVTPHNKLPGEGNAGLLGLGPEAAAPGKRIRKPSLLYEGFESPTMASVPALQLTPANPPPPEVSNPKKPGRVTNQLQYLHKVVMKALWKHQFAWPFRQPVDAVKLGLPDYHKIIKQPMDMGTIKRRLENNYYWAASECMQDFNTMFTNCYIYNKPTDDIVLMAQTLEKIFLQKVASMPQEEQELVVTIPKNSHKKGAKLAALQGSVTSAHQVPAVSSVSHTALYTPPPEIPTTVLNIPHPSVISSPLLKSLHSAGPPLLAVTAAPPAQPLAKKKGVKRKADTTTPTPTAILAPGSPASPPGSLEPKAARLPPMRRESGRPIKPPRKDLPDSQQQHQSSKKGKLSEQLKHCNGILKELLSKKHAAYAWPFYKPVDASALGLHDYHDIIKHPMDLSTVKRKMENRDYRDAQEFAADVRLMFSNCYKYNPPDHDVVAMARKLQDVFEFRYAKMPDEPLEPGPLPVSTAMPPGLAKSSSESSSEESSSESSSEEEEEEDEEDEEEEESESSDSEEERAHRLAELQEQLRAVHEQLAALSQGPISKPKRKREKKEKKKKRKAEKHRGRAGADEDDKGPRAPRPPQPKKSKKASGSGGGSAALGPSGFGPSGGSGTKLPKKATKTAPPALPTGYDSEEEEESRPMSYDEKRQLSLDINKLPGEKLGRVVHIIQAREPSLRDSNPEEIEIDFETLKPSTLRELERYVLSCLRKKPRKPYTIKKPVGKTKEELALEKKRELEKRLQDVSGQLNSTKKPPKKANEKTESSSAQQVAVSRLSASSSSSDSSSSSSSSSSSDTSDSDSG

Kd [1]: 3100 nM
Kd [2]: 230 nM
IC50 [4]: 93 nM
inhibition [5]: Active
Activity [10]: Active
SMILES: COc1ccc(S(=O)(=O)n2ccc(/C=C/C(=O)NO)c2)cc1NC(=O)c1[nH]c(C)c2c1CCCCC2=O
viability at 5 µM [3]: 4%
Activity [6]: Active
Activity [7]: Active
Activity [8]: Active
Activity [9]: Active

Kd [1]: 3300 nM
Kd [2]: 7400 nM
IC50 [4]: 179 nM
Activity [5]: Active
Activity [10]: Active
SMILES: CCc1c(C(=O)Nc2cc(/C=C/C(=O)NO)ccc2OC)[nH]c(C)c1C(C)=O
viability at 5 µM [3]: 3.5%
Activity [11]: Active
Activity [6]: Active
Activity [7]: Active
Activity [8]: inactive
Activity [9]: Active

SMILES: Cc1[nH]c(C(=O)Nc2cc(S(=O)(=O)N3CCOCC3)ccc2OCCCCCCCC(=O)NO)c2c1C(=O)CCCC2
Kd [1]: 67 nM
Kd [2]: 27 nM
viability at 5 µM [3]: 1.7%
IC50 [4]: 163 nM
survival at 72 h, 0.005 µM [12]: 100%
survival at 72 h, 0.05 µM [13]: 95%
survival at 72 h, 0.5 µM [14]: 100%
inhibition [5]: Active
Activity [9]: Active
Activity [15]: Active
Activity [10]: Active
Activity [16]: Active
Activity [17]: 15%
Activity [18]: 15%
Activity [19]: 15%
Activity [20]: 0%
Activity [21]: 0%
Activity [22]: 15%
Activity [23]: 15%
Activity [24]: 0%
Activity [25]: 15%
Activity [26]: 15%
Activity [27]: 15%
Activity [28]: 10%
Activity [29]: 15%
Activity [30]: 0%
Activity [31]: 40%
Activity [32]: 0%
Activity [33]: 0%
Activity [34]: 0%
Activity [35]: 0%
Activity [36]: 0%
Activity [37]: 5%
Activity [38]: 5%
Activity [39]: 15%
Activity [40]: 0%
Activity [41]: 10%
Activity [42]: 15%
Activity [43]: 5%
Activity [44]: 10%

Source: ChEMBL document CHEMBL5055650, “4-Acyl Pyrrole Capped HDAC Inhibitors: A New Scaffold for Hybrid Inhibitors of BET Proteins and Histone Deacetylases as Antileukemia Drug Leads” (J Med Chem, 2021)
